Data: US10519115B2, “Antidiabetic tricyclic compounds” (Merck Sharp & Dohme Corp., priority 2013, dated 2019)

target: T1, Human GPR40 (Homo sapiens, UniProt O14842); test: Inositol Phosphate Turnover Assay 1 (HEK cells stably expressing human GPR40); type: cell-based; design: expressed in transfected cells; host or cells: HEK cells stably expressing the aequorin reporter; conditions: HEK cells stably expressing human GPR40, 96-well, 3H-inositol; read-out: Human GPR40 IP1 Assay 1, EC50
Experimental: (§1) Human and mouse GPR40 stable cell-lines were generated in CHO cells stably expressing NFAT BLA (Beta-lactamase). A human GPR40 stable cell-line was generated in HEK cells stably expressing the aequorin expressing reporter. The expression plasmids were transfected using lipofectamine (Life Technologies) following manufacturer's instructions. Stable cell-lines were generated following drug selection.
The assay was performed in 96-well format. HEK cells stably expressing human GPR40 were plated to be 60-80% confluent within 72 h. After 72 h, the plates were aspirated and the cells washed with inositol-free DMEM (ICN). The wash media was replaced with 150 μL of 3H-inositol labeling media (inositol-free media containing 0.4% human albumin or 0.4% mouse albumin, 1× pen/strep antibiotics, glutamine, 25 mM HEPES to which was added 3H-myo-inositol NEN #NET114A 1 mCi/mL, 25 Ci/mmol diluted 1:150 in loading media with a final specific radioactivity of 1 μCi/150 μL). Alternatively, the human and mouse albumin can be added after the overnight labeling step before the addition of LiCl.
The assay was typically run the next day after 18 h labeling. On the day of the assay, 5 μL of 300 mM LiCl was added to all wells and incubated at 37 degrees for 20 min. 0.75 μL of 200× compounds were added and incubated with the cells for 60 min at 37 degrees. The media was then aspirated off and the assay terminated with the addition of 60 μL 10 mM formic acid. The cells were lysed for 60 min at room temperature. 15-30 μL of lysate was mixed with 70 μL/1 mg YSi SPA beads (Amersham) in clear bottom Isoplates. The plates were shaken for 2 h at room temperature. Beads were allowed to settle and the plates were counted in the Wallac Microbeta.

T1 sequence (O14842 whole entry): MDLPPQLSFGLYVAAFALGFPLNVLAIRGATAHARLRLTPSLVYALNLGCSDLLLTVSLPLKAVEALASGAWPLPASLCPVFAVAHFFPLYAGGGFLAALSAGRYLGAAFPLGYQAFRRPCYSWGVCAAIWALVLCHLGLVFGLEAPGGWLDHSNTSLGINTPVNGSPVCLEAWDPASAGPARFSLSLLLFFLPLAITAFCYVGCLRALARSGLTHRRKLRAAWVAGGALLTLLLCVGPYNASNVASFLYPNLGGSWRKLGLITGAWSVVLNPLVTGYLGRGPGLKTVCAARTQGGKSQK

Compared with `CS(=O)(=O)c1ccc(-c2ccc(-c3cc(COc4cc5c(cn4)[C@H]4[C@@H](C5)[C@@H]4C(=O)O)c(F)cc3C(F)(F)F)cc2)cc1` [Compound-10, (5aR,6S,6aS)-3-((4-fluoro-4″-(methylsulfonyl)-6-(tri-fluoromethyl)-[1,1′;4′,1″- terphenyl]-3-yl)methoxy)-5,5a,6,6a-tetrahydrocyclo-propa[4,5]cyclpenta [1,2-c]pyridine-6-carboxylic acid], `N#Cc1ccc(-c2ccc(-c3cc(COc4cc5c(cn4)[C@H]4[C@@H](C5)[C@@H]4C(=O)O)c(F)cc3C(F)(F)F)cc2)cc1` [Compound-9, (5aR,6S,6aS)-3-((4″-cyano-4-fluoro-6-(trifluoromethyl)-[1,1′:4′,1″-terphenyl]-3-yl)methoxy)-5,5a,6,6a-tetrahydrocyclopropa[4,5] cyclopenta[1,2-c]pyridine-6-carboxylic acid] is 3.1-fold higher in EC50: 2.9 nM for the first, 8.9 nM for the second.

Work on `Cc1cc(O[C@H]2C[C@H](S(C)(=O)=O)C2)cc(C)c1-c1cc(COc2cc3c(cn2)[C@H]2[C@@H](C3)[C@@H]2C(=O)O)c(F)cc1F` [Compound-15] yielded an EC50 of 6.7 nM.

target: T1, Human GPR40; test: Inositol Phosphate Turnover (IP1) Assay 2 (HEK cells stably expressing human GPR40, CisBio IP-One kit); type: cell-based; design: expressed in transfected cells; host or cells: HEK cells stably expressing the aequorin reporter; conditions: HEK cells stably expressing human GPR40, 384-well
Experimental: as §1
The assay was performed in 384-well format. HEK cells stably expressing human GPR40 were plated at 15,000 cells per well in growth medium (DMEM/10% fetal calf serum). Cell plates were then incubated 16 hours at 37 degrees in a 5% CO2 incubator.
Measurement of Inositol Phosphate Turnover (IP1) was performed using the CisBio IP-One kit (Part number 62IPAPEB). After the 16 hour incubation, the cells were washed with HEPES buffer and 10 ul of stimulation buffer (prepared as described in the kit) was added to each well. In a separate plate, compounds were diluted in DMSO (400-fold over the final concentration in the assay well) and 25 nl was acoustically transferred to the appropriate well in the assay cell plate. The plates were then incubated for 60 minutes at 37 degrees. 10 ul of detection buffer (also prepared as described in the IP-One kit) was added to each well and the plates were incubated for 60 minutes in the dark. The plates were then read in a Perkin Elmer EnVision or equivalent reader able to measure FRET. Fluorescent ratio of emission at 665 and 620 nm was then converted to IP1 concentration by back calculating from an IP1 standard curve prepared at the time of the assay.

`Cc1cc(OC[C@H]2C[C@@](O)(CO)C2)cc(C)c1-c1cc(COc2cc3c(cn2)[C@H]2[C@@H](C3)[C@@H]2C(=O)O)c(F)cc1F` (single isomer, unassigned) [Compound-25] and `Cc1cc(OC[C@H]2C[C@](O)(CO)C2)cc(C)c1-c1cc(COc2cc3c(cn2)[C@H]2[C@@H](C3)[C@@H]2C(=O)O)c(F)cc1F` (single isomer, unassigned) [Compound-26] are within 1.5-fold of each other in EC50: 1.9 nM for the first, 1.6 nM for the second.

`Cc1cc(OC2CC(C(C)(O)CO)C2)cc(C)c1-c1cc(COc2cc3c(cn2)C2C(C3)C2C(=O)O)c(F)cc1F` (single isomer, unassigned) [Compound-21] and `Cc1cc(O[C@H]2C[C@H](S(C)(=O)=O)C2)cc(C)c1-c1cc(COc2cc3c(cn2)[C@H]2[C@@H](C3)[C@@H]2C(=O)O)c(F)cc1F` [Compound-15] are within 1.5-fold of each other in EC50: 1 nM for the first, 1.2 nM for the second.

Compared with `Cc1cc(OC[C@H]2C[C@](C)(O)[C@](C)(O)C2)cc(C)c1-c1cc(COc2cc3c(cn2)[C@H]2[C@@H](C3)[C@@H]2C(=O)O)c(F)cc1F` [Compound-20, (5aR,6S,6aS)-3-((4′-(((1s,3R,4S)-3,4-dihydroxy-3,4-dimethylcyclopentyl)methoxy)-4,6-difluoro-2′,6′-dimethyl-[1,1′-biphenyl]-3-yl)methoxy)-5,5a,6,6a-tetrahydrocyclopropa-[4,5]cyclopenta[1,2-c]pyridine-6-carboxylic acid], `Cc1cc(OC2CC(C(C)(O)CO)C2)cc(C)c1-c1cc(COc2cc3c(cn2)C2C(C3)C2C(=O)O)c(F)cc1F` (single isomer, unassigned) [Compound-22] is 4.4-fold lower in EC50: 3.1 nM for the first, 0.7 nM for the second. The second is the more potent here.

`O=C(O)[C@H]1[C@@H]2Cc3cc(OCc4cc(-c5ccc(OC[C@H]6C[C@](O)(CO)C6)cc5Cl)c(F)cc4F)ncc3[C@@H]21` (single isomer, unassigned) [Compound-24] and `O=C(O)[C@H]1[C@@H]2Cc3cc(OCc4cc(-c5ccc(OC[C@H]6C[C@@](O)(CO)C6)cc5Cl)c(F)cc4F)ncc3[C@@H]21` (single isomer, unassigned) [Compound-23] are within 1.5-fold of each other in EC50: 1.3 nM for the first, 1 nM for the second.

Compared with `Cc1cc(-c2ncn(CC(C)(C)O)n2)cc(C)c1-c1cc(COc2cc3c(cn2)[C@H]2[C@@H](C3)[C@@H]2C(=O)O)c(F)cc1F` [Compound-17, (5aR,6S,6aS)-3-((4,6-difluoro-4′-(1-(2-hydroxy-2-methylpropyl)-1H-1,2,4-triazol-3-yl)-2′,6′-dimethyl-[1,1′-biphenyl]-3-yl)methoxy)-5,5a,6,6a-tetrahydrocyclopropa[4,5]cyclopenta[1,2-c]pyridine-6-carboxylic acid], `Cc1nc(OC2CC(S(C)(=O)=O)C2)ccc1-c1cc(COc2cc3c(cn2)[C@H]2[C@@H](C3)[C@@H]2C(=O)O)c(F)cc1C(F)(F)F` (stereo partly shown) [Compound-19] is 2.6-fold higher in EC50: 0.8 nM for the first, 2.1 nM for the second.
